Assays:
Type in all cases: in vivo
Details in all cases: alone, 14 d
[1] = test system: Brassica napus (winter oilseed rape); test: Postemergent herbicidal activity, greenhouse foliar application, BRSNW
Experimental: (§1) Evaluation of Postemergent Herbicidal Activity. Seeds or nutlets of the desired test plant species were planted in Sun Gro Metro-Mix® 360 planting mixture, which typically has a pH of 6.0 to 6.8 and an organic matter content of about 30 percent, in plastic pots with a surface area of 64 square centimeters (cm^2). When required to ensure good germination and healthy plants, a fungicide treatment and/or other chemical or physical treatment was applied. The plants were grown for 7-21 days (d) in a greenhouse with an approximate 15 hour (h) photoperiod which was maintained at about 23-29° C. during the day and 22-28° C. during the night. Nutrients and water were added on a regular basis and supplemental lighting was provided with overhead metal halide 1000-Watt lamps as necessary. The plants were employed for testing when they reached the first or second true leaf stage.
(§2) A weighed amount, determined by the highest rate to be tested, of each test compound was placed in a 25 milliliter (mL) glass vial and was dissolved in 4 mL of a 97:3 volume per volume (v/v) mixture of acetone and dimethyl sulfoxide (DMSO) to obtain concentrated stock solutions. […] The concentrated stock solutions obtained were diluted with 20 mL of an aqueous mixture containing acetone, water, isopropyl alcohol, DMSO, Atplus 411F crop oil concentrate, and Triton® X-155 surfactant in a 48.5:39:10:1.5:1.0:0.02 v/v ratio to obtain spray solutions containing the highest application rates. Additional application rates were obtained by serial dilution of 12 mL of the high rate solution into a solution containing 2 mL of a 97:3 v/v mixture of acetone and DMSO and 10 mL of an aqueous mixture containing acetone, water, isopropyl alcohol, DMSO, Atplus 411F crop oil concentrate, and Triton X-155 surfactant in a 48.5:39:10:1.5:1.0:0.02 v/v ratio to obtain ½×, ¼×, ⅛× and 1/16× rates of the high rate. Compound requirements are based upon a 12 mL application volume at a rate of 187 liters per hectare (L/ha). Formulated compounds were applied to the plant material with an overhead Mandel track sprayer equipped with 8002E nozzles calibrated to deliver 187 L/ha over an application area of 0.503 square meters (m^2) at a spray height of 18 inches ([…]) above the average plant canopy height. Control plants were sprayed in the same manner with the solvent blank.
(§3) Treatments consisted of the methyl ester of 4-amino-3-chloro-6-(4-chloro-2-fluoro-3-methoxyphenyl)pyridine-2-carboxylic acid (Cmpd 1) as technical grade material and cloransulam-methyl (FirstRate®) and diclosulam (Strongarm®) alone and in combination. The form of compound of formula (I) was applied on an acid equivalent basis, and cloransulam-methyl and diclosulam were applied on an active ingredient basis.
(§4) The treated plants and control plants were placed in a greenhouse as described above and watered by subirrigation to prevent wash-off of the test compounds. After 14 d, the condition of the test plants as compared with that of the untreated plants was determined visually and scored on a scale of 0 to 100 percent where 0 corresponds to no injury and 100 corresponds to complete kill.
(§5) Results in Tables 1 and 2 are greenhouse trial results for foliar applied compositions. The values reported are percent (%) control visually rated. Colby's equation was used to determine the herbicidal effects expected from the mixtures (Colby, S. R. Calculation of the synergistic and antagonistic response of herbicide combinations. Weeds 1967, 15, 20-22.). More specifically, the following equation was used to calculate the expected activity of mixtures containing two active ingredients, A and B:
(§6) Expected=A+B−(A×B/100) • A=observed efficacy of active ingredient A at the same concentration as used in the mixture; • B=observed efficacy of active ingredient B at the same concentration as used in the mixture.

[2] = test system: Chenopodium album L. (common lambsquarters); test: Postemergent herbicidal activity, greenhouse foliar application, CHEAL
Experimental: as §1, §2, §3, §4, §5, §6

[3] = test system: Viola tricolor (L.) (wild pansy); test: Postemergent herbicidal activity, greenhouse foliar application, VIOTR
Experimental: as §1, §2, §3, §4, §5, §6

[4] = test system: Stellaria media (L.) Vill. (common chickweed); test: Postemergent herbicidal activity, greenhouse foliar application, STEME
Experimental: as §1, §2, §3, §4, §5, §6

[5] = test system: Setaria faberi Herrm. (giant foxtail); test: Postemergent herbicidal activity, greenhouse foliar application, SETFA
Experimental: as §1, §2, §3, §4, §5, §6

[6] = test system: Sorghum vulgare (common sorghum); test: Postemergent herbicidal activity, greenhouse foliar application, SORVU
Experimental: as §1, §2, §3, §4, §5, §6

[7] = test system: Amaranthus retroflexus L. (redroot pigweed); test: Postemergent herbicidal activity, greenhouse foliar application, AMARE
Experimental: as §1, §2, §3, §4, §5, §6

[8] = test system: Ipomoea hederacea (L.) Jacq. (ivyleaf momingglory); test: Postemergent herbicidal activity, greenhouse foliar application, IPOHE
Experimental: as §1, §2, §3, §4, §5, §6

[9] = test system: Cyperus esculentus L. (yellow nutsedge); test: Postemergent herbicidal activity, greenhouse foliar application, CYPES
Experimental: as §1, §2, §3, §4, §5, §6

## COC(=O)c1nc(-c2ccc(Cl)c(OC)c2F)cc(N)c1Cl [Cmpd 1, methyl 4-amino-3-chloro-6-(4-chloro-2-fluoro-3-methoxyphenyl)pyridine-2-carboxylate]
[1]; 1.25 g ae/ha
  BRSNW Obs, percent (%) control rated visually: 0%
[1]; 2.5 g ae/ha
  BRSNW Obs, percent (%) control rated visually: 5%
[1]; 5 g ae/ha
  BRSNW Obs, percent (%) control rated visually: 20%
[2]; 1.25 g ae/ha
  CHEAL Obs, percent (%) control rated visually: 70%
[2]; 2.5 g ae/ha
  CHEAL Obs, percent (%) control rated visually: 80%
[2]; 5 g ae/ha
  CHEAL Obs, percent (%) control rated visually: 93%
[3]; 1.25 g ae/ha
  VIOTR Obs, percent (%) control rated visually: 10%
[3]; 2.5 g ae/ha
  VIOTR Obs, percent (%) control rated visually: 10%
[3]; 5 g ae/ha
  VIOTR Obs, percent (%) control rated visually: 30%
[4]; 1.25 g ae/ha
  STEME Obs, percent (%) control rated visually: 30%
[4]; 2.5 g ae/ha
  STEME Obs, percent (%) control rated visually: 20%
[4]; 5 g ae/ha
  STEME Obs, percent (%) control rated visually: 40%
[5]; 1.25 g ae/ha
  SETFA Obs, percent (%) control rated visually: 0%
[5]; 2.5 g ae/ha
  SETFA Obs, percent (%) control rated visually: 0%
[5]; 5 g ae/ha
  SETFA Obs, percent (%) control rated visually: 30%
[6]; 1.25 g ae/ha
  SORVU Obs, percent (%) control rated visually: 0%
[6]; 2.5 g ae/ha
  SORVU Obs, percent (%) control rated visually: 0%
[6]; 5 g ae/ha
  SORVU Obs, percent (%) control rated visually: 0%
[7]; 1.25 g ae/ha
  AMARE Obs, percent (%) control rated visually: 50%
[7]; 2.5 g ae/ha
  AMARE Obs, percent (%) control rated visually: 60%
[7]; 5 g ae/ha
  AMARE Obs, percent (%) control rated visually: 90%
[8]; 1.25 g ae/ha
  IPOHE Obs, percent (%) control rated visually: 10%
[8]; 2.5 g ae/ha
  IPOHE Obs, percent (%) control rated visually: 20%
[8]; 5 g ae/ha
  IPOHE Obs, percent (%) control rated visually: 20%
[9]; 1.25 g ae/ha
  CYPES Obs, percent (%) control rated visually: 50%
[9]; 2.5 g ae/ha
  CYPES Obs, percent (%) control rated visually: 90%
[9]; 5 g ae/ha
  CYPES Obs, percent (%) control rated visually: 93%

## CCOc1nc(F)cc2nc(S(=O)(=O)Nc3c(Cl)cccc3Cl)nn12 [diclosulam, N-(2,6-dichlorophenyl)-5-ethoxy-7-fluoro[1,2,4]triazolo[1,5-c]pyrimidine-2-sulfonamide]
[1]; 4.375 g ai/ha
  BRSNW Obs, percent (%) control rated visually: 80%
[1]; 8.75 g ai/ha
  BRSNW Obs, percent (%) control rated visually: 85%
[1]; 17.5 g ai/ha
  BRSNW Obs, percent (%) control rated visually: 90%
[2]; 4.375 g ai/ha
  CHEAL Obs, percent (%) control rated visually: 0%
[2]; 8.75 g ai/ha
  CHEAL Obs, percent (%) control rated visually: 10%
[2]; 17.5 g ai/ha
  CHEAL Obs, percent (%) control rated visually: 40%
[3]; 4.375 g ai/ha
  VIOTR Obs, percent (%) control rated visually: 10%
[3]; 8.75 g ai/ha
  VIOTR Obs, percent (%) control rated visually: 50%
[3]; 17.5 g ai/ha
  VIOTR Obs, percent (%) control rated visually: 70%
[4]; 4.375 g ai/ha
  STEME Obs, percent (%) control rated visually: 0%
[4]; 8.75 g ai/ha
  STEME Obs, percent (%) control rated visually: 0%
[4]; 17.5 g ai/ha
  STEME Obs, percent (%) control rated visually: 0%
[5]; 4.375 g ai/ha
  SETFA Obs, percent (%) control rated visually: 0%
[5]; 8.75 g ai/ha
  SETFA Obs, percent (%) control rated visually: 0%
[5]; 17.5 g ai/ha
  SETFA Obs, percent (%) control rated visually: 0%
[6]; 4.375 g ai/ha
  SORVU Obs, percent (%) control rated visually: 0%
[6]; 8.75 g ai/ha
  SORVU Obs, percent (%) control rated visually: 0%
[6]; 17.5 g ai/ha
  SORVU Obs, percent (%) control rated visually: 0%
[7]; 4.375 g ai/ha
  AMARE Obs, percent (%) control rated visually: 10%
[7]; 8.75 g ai/ha
  AMARE Obs, percent (%) control rated visually: 20%
[7]; 17.5 g ai/ha
  AMARE Obs, percent (%) control rated visually: 30%
[8]; 4.375 g ai/ha
  IPOHE Obs, percent (%) control rated visually: 75%
[8]; 8.75 g ai/ha
  IPOHE Obs, percent (%) control rated visually: 80%
[8]; 17.5 g ai/ha
  IPOHE Obs, percent (%) control rated visually: 85%
[9]; 4.375 g ai/ha
  CYPES Obs, percent (%) control rated visually: 60%
[9]; 8.75 g ai/ha
  CYPES Obs, percent (%) control rated visually: 60%
[9]; 17.5 g ai/ha
  CYPES Obs, percent (%) control rated visually: 70%

## CCOc1nc(F)cc2nc(S(=O)(=O)Nc3c(Cl)cccc3C(=O)OC)nn12 [cloransulam-methyl, methyl 3-chloro-2-[[(5-ethoxy-7-fluoro[1,2,4]triazolo[1,5-c]pyrimidin-2-yl)sulfonyl]amino]benzoate]
[1]; 4.375 g ai/ha
  BRSNW Obs, percent (%) control rated visually: 90%
[1]; 8.75 g ai/ha
  BRSNW Obs, percent (%) control rated visually: 93%
[1]; 17.5 g ai/ha
  BRSNW Obs, percent (%) control rated visually: 95%
[2]; 4.375 g ai/ha
  CHEAL Obs, percent (%) control rated visually: 0%
[2]; 8.75 g ai/ha
  CHEAL Obs, percent (%) control rated visually: 10%
[2]; 17.5 g ai/ha
  CHEAL Obs, percent (%) control rated visually: 20%
[3]; 4.375 g ai/ha
  VIOTR Obs, percent (%) control rated visually: 10%
[3]; 8.75 g ai/ha
  VIOTR Obs, percent (%) control rated visually: 50%
[3]; 17.5 g ai/ha
  VIOTR Obs, percent (%) control rated visually: 65%
[4]; 4.375 g ai/ha
  STEME Obs, percent (%) control rated visually: 0%
[4]; 8.75 g ai/ha
  STEME Obs, percent (%) control rated visually: 0%
[4]; 17.5 g ai/ha
  STEME Obs, percent (%) control rated visually: 0%
[5]; 4.375 g ai/ha
  SETFA Obs, percent (%) control rated visually: 0%
[5]; 8.75 g ai/ha
  SETFA Obs, percent (%) control rated visually: 0%
[5]; 17.5 g ai/ha
  SETFA Obs, percent (%) control rated visually: 0%
[6]; 4.375 g ai/ha
  SORVU Obs, percent (%) control rated visually: 0%
[6]; 8.75 g ai/ha
  SORVU Obs, percent (%) control rated visually: 10%
[6]; 17.5 g ai/ha
  SORVU Obs, percent (%) control rated visually: 20%
[7]; 4.375 g ai/ha
  AMARE Obs, percent (%) control rated visually: 0%
[7]; 8.75 g ai/ha
  AMARE Obs, percent (%) control rated visually: 10%
[7]; 17.5 g ai/ha
  AMARE Obs, percent (%) control rated visually: 20%
[8]; 4.375 g ai/ha
  IPOHE Obs, percent (%) control rated visually: 80%
[8]; 8.75 g ai/ha
  IPOHE Obs, percent (%) control rated visually: 85%
[8]; 17.5 g ai/ha
  IPOHE Obs, percent (%) control rated visually: 85%

Reference: patent US20140213447A1, “HERBICIDAL COMPOSITIONS COMPRISING 4-AMINO-3-CHLORO-6-(4-CHLORO-2-FLUORO-3-METHOXYPHENYL) PYRIDINE-2-CARBOXYLIC ACID OR A DERIVATIVE THEREOF AND CERTAIN TRIAZOLOPYRIMIDINE SULFONAMIDES” (DOW AGROSCIENCES LLC, priority 2013, published 2014)
